The target in one experiment is T1, 5-lipoxygenase (Homo sapiens, UniProt P09917).
T1 construct: Human polymorphonuclear (PMN) leukocytes (neutrophils) are obtained from normal healthy volunteers; endogenous in cells; host or cells: human polymorphonuclear leukocytes (neutrophils) from blood of healthy volunteers
T1 sequence (P09917 1-674): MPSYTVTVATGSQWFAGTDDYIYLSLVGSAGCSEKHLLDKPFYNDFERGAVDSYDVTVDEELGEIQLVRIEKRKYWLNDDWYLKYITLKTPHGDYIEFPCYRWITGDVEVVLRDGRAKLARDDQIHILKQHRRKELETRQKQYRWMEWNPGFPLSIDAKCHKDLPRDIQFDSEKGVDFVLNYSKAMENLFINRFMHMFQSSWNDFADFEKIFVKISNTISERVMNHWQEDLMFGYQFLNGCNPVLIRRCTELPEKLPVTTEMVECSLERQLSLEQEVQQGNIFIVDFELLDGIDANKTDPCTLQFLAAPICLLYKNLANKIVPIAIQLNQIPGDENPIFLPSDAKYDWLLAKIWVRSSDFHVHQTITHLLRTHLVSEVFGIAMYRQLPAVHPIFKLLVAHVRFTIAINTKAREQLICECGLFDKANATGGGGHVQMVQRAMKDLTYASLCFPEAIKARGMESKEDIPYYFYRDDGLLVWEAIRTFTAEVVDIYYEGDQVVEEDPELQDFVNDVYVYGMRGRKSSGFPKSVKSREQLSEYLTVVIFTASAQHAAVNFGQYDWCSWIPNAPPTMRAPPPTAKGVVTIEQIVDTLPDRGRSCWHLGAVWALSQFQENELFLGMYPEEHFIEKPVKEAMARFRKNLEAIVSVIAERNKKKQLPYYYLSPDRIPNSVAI
As to the kind of experiment: 5-Lipoxygenase Assay in human polymorphonuclear (PMN) leukocytes, 5-HETE production. Type of experiment: cell-based. The method, then: Human polymorphonuclear (PMN) leukocytes (neutrophils) are obtained from normal healthy volunteers by venipuncture and collected with heparin anticoagulant. Neutrophils are isolated by Dextran/Ficol sedimentation as described (Billah et al, J. Biol. Chem. 260, 6899-6906 (1985)). In brief, 30 ml of blood is mixed with 5 ml of dextran (Sigma) solution and kept at 37° C. for 30 min. The upper white cellrich layer is removed and 10 ml is layered on 9 ml of Ficol-Paque solution (Pharmacia) and centrifuged at 280×g for 10 min. at 5° C. The supernatant is removed and the neutrophil pellet is resuspended in HEPES buffer containing 25 mM N-2-hydroxyethylpiperazine-N^1 -2 ethanesulfonic acid(HEPES), 125 mM NaCl, 2.5 mM KCL, 0.7 mM MgCl2, 0.5 mM and 10 mM glucose at pH 7.4. The red cells in the suspension are lysed by hypotonic shock. The neutrophils are washed by centrifugation in HEPES buffer two times and finally resuspended at a concentration of 20×10^6 cells/ml in the presence of 1 mM CaCl2.
Neutrophils (0.2 ml of suspension) are preincubated with dimethylsulfoxide (DMSO) vehicle with or without test compound (1 ul) for 4 minutes then incubated for 5 minutes with ^14 C-arachidonic acid (Amersham, 59 Ci/mole) at a 9 uM final concentration, and the calcium ionophore A23187 (Calbiochem) at a 1 uM final concentration. These stimulants are added in 10 ul of water:ethanol (9:1). The reaction is stopped by addition of methanol (0.4 ml), and cellular debris is removed by centrifugation. Aliquots (100 ul) of the incubations are run on a Waters two pump high performance liquid chromatography (HPLC) system fitted with a DuPont Zorbax ODS, 5 u, 4×80 […] Reliance Cartridge column and C18 "Guard Pak". The column is initially eluted at 2 ml/min with 80 percent of the mixture water:methanol:acetic acid (46:54:0.08) containing 1 mM EDTA adjusted to pH 6.0 with ammonium hydroxide (Pump A) and 20% methanol (Pump B). At 10 minutes, a linear gradient is established. to reach 100 percent methanol (Pump B) at 27 minutes. Between 27 and 28 minutes, methanol is exchanged for the initial eluting solvent and by 35 minutes the column is reequilibrated for the next sample. The effluent is analyzed by a continuous flow radioactivity monitor (model ROMONA-D) interfaced with a Hewlett Packard Lab Automation System for quantitation of radioactive products. This includes the major 5-lipoxygenase product, 5-hydroxyeicosatetraenoic acid (5-HETE) which elutes at 20 minutes. The results with and without test compound are used to calculate percent inhibition of 5-HETE production.

The next experiment deals with T2, cyclooxygenase (Homo sapiens, UniProt P23219).
T2 construct: Cyclooxygenase Assay with Human Platelets; endogenous in cells; host or cells: human blood platelets from healthy volunteers
T2 sequence (P23219 24-599): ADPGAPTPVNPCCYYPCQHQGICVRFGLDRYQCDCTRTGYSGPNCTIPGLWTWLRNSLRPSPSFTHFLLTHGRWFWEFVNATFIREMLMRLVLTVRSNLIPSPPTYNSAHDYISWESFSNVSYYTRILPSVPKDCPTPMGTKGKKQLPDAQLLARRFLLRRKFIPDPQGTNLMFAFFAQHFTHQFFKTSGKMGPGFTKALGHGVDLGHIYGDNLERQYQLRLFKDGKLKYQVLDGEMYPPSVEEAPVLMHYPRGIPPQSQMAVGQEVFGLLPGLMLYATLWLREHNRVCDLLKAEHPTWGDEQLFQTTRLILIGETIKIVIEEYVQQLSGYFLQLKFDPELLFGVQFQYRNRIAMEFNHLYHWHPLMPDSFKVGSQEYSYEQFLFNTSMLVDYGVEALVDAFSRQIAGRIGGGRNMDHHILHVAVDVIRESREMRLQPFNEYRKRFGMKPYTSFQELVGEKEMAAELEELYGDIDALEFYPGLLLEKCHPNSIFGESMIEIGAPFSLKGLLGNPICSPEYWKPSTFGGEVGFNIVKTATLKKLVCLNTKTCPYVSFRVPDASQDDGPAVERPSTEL
In words: Cyclooxygenase Assay with Human Platelets, HHT production. The note with it: for % inhibition of HHT production in human platelets at 50 µM / % inhibition of HHT production in human platelets at 15 µM: read-out: PMN Assay % Inhibition HHT. The format is cell-based. As to the method:
Cyclooxygenase Assay with Human Platelets
Blood is collected in acid-citrate-dextrose anticoagulant by venipuncture from normal healthy volunteers who said that they were not on any medication for the previous two weeks. Platelets are isolated by the procedure of Okuma and Uchino (Blood 54:1258-1271 (1979)). In brief, blood is centrifuged at 4° C. at 200×g for 10 minutes to sediment red and white cells. The platelet rich plasma (PRP) supernatant is removed and mixed with one-tenth volume of 77 mM EDTA, pH 7.2 and prostacyclin sodium salt is added to the PRP at a final concentration of 1 nanogram per milliliter(ng/mL). The PRP is centrifuged at 1700×g, 4° C. for 15 minutes. The platelet pellet is resuspended in the HEPES buffer described in the 5-lipoxygenase section above which additionally contained 1 ng/mL prostacyclin and 0.5 mM ethylene glycolbis(B-aminoethyl ether) N,N,N',N'-tetraacetic acid (EGTA) and the suspension is recentrifuged at 1,700×g, 4° C. for 15 minutes. The pellet is resuspended in HEPES buffer containing 0.5 mM EGTA and 1.5 mM CaCl2 at a cell count of 200,000 cells/ul. Platelets (0.2 ml of suspension) are preincubated with test compounds and the ^14 C-arachidonic acid plus the calcium ionophore A23187 stimulant exactly as described for the 5-lipoxygenase assay. The cyclooxygenase product 12-hydroxyheptadecatrienoic acid (HHT) is isolated and quantitated by the HPLC system used for the 5-lipoxygenaseassay. HHT elutes from this system at about eleven minutes. Results are expressed as percent inhibition of HHT production by the test compounds versus the test vehicle alone.

As to `O=C1C(Sc2ccccc2Cl)c2cccnc2N1c1ccccc1` (stereo not drawn) [Compound 20, 1,3-dihydro-3-(2-chlorophenylthio)-1-phenyl-2H-pyrrolo[2,3-b]pyridin-2-one], 50 µM produced 90% inhibition on 5-lipoxygenase (50 μM). In addition, the % inhibition of HHT production in human platelets at 50 µM on cyclooxygenase was 80%.
The like results for `O=C1C([S+]([O-])c2ccccc2)c2cccnc2N1c1cccc(C(F)(F)F)c1` (stereo not drawn) [Compound 13, 1,3-dihydro-3-(phenylsulfinyl)-1-(3-trifluoromethylphenyl)-2H-pyrrolo[2,3-b]pyridin-2-one] were, in that order, 82% and 44%.
The like results for `O=C1C(Sc2ccc(Cl)cc2)c2cccnc2N1c1ccccc1` (stereo not drawn) [Compound 19, 1,3-dihydro-3-(4-chlorophenylthio)-1-phenyl-2H-pyrrolo[2,3-b]pyridin-2-one] were, in that order, 91% and 71%.
Taken in the same sequence, the figures for `COc1ccccc1SC1C(=O)N(c2ccccc2)c2ncccc21` (stereo not drawn) [Compound 22, 1,3-dihydro-3-(2-methoxyphenylthio)-1-phenyl-2H-pyrrolo[2,3-b]pyridin-2-one] were 84% and 31%.
Turning to `COc1c(Sc2ccccc2)c2cccnc2n1-c1ccccc1` [Compound 35, 2-methoxy-1-phenyl-3-(phenylthio)-1H-pyrrolo[2,3-b]pyridine], the “inhibition of 5-HETE in the PMN assay” value against 5-lipoxygenase (concentration not given) is on record as 80%. Moreover, at cyclooxygenase (concentration not given), the “% inhibition of HHT production in human platelets” value stood at 55%.
Regarding `O=C1N(Cc2ccccc2)c2ncccc2C1(Sc1ccccc1)Sc1ccccc1` [Compound 26, 1,3-dihydro-3,3-(diphenylthio)-1-(phenylmethyl)-2H-pyrrolo[2,3-b]pyridin-2-one], the inhibition (usually how much of the control response was suppressed) at 15 µM against 5-lipoxygenase (15 μM) is 96%. For the same molecule, the % inhibition of HHT production in human platelets at 15 µM on cyclooxygenase (15 μM) came to 11%.
Taken in the same sequence, the figures for `O=C1C(Sc2ccccc2)c2cccnc2N1c1ccc(Cl)c(Cl)c1` (stereo not drawn) [Compound 34, 1,3-dihydro-1-(3,4-dichlorophenyl)-3-(phenylthio)[2,3-b]pyridin-2-one] were 99% and 54%.
In turn, `O=C1C(Sc2ccccc2)c2cccnc2N1c1cccc(Cl)c1` (stereo not drawn) [Compound 33, 1,3-dihydro-1-(3-chlorophenyl)-3-(phenylthio)-2H-pyrrolo] had an inhibition at 15 µM against 5-lipoxygenase (15 μM) of 87%. The % inhibition of HHT production in human platelets at 15 µM on cyclooxygenase (15 μM) was 52%.
Take `CC(C)N1C(=O)C(Sc2ccccc2)c2cccnc21` (stereo not drawn) [Compound 14, 1,3-dihydro-1-(methylethyl)-3-(phenylthio)-2H-pyrrolo[2,3-b]pyridin-2-one]: the inhibition at 50 µM on 5-lipoxygenase (50 μM) was 63%. Also, the % inhibition of HHT production in human platelets at 50 µM at cyclooxygenase is 17%.
On to `Cc1c(Cl)cccc1N1C(=O)C(Sc2ccccc2)c2cccnc21` (stereo not drawn) [Compound 18, 1,3-dihydro-1-(3-chloro-2-methylphenyl)-3-(phenylthio)-2H-pyrrolo[2,3-b]pyridin-2-one], for which the inhibition at 50 µM on 5-lipoxygenase (50 μM) came to 86%. The % inhibition of HHT production in human platelets at 50 µM on cyclooxygenase was 64%.
In the case of `O=C1C(Sc2ccccc2)c2cccnc2N1c1ccccc1` (stereo not drawn) [Compound 11, 1,3-dihydro-1-phenyl-3-(phenylthio)-2H-pyrrolo[2,3-b]pyridin-2-one], on 5-lipoxygenase (15 μM), the inhibition at 15 µM is 67%. In addition, the % inhibition of HHT production in human platelets at 15 µM on cyclooxygenase (15 μM) amounted to 23%.
At 5-lipoxygenase (50 μM), `CC1(Sc2ccccc2)C(=O)N(c2ccccc2)c2ncccc21` (stereo not drawn) [Compound 16, 1,3-dihydro-3-methyl-1-phenyl-3-(phenylthio)-2H-pyrrolo[2,3-b]pyridin-2-one] registered an inhibition at 50 µM of 68%. Also, on cyclooxygenase, the % inhibition of HHT production in human platelets at 50 µM turned out to be 2%.
For `CC(=O)OCCSC1(C(C)=O)C(=O)N(c2ccccc2)c2ncccc21` (stereo not drawn) [Compound 28, 1,3-dihydro-3-[2-(acetoxy)-ethylthio)-3-(1-oxoethyl)-1-phenyl-2H-pyrrolo[2,3-b]pyridin-2-one], at 5-lipoxygenase (15 μM), the “PMN Assay % Inhibition 5-HETE” value came out at 96% and at 15 µM the inhibition was 80%. For the same molecule, on cyclooxygenase (15 μM), the “% inhibition of HHT production in human platelets” value came to 29% and the % inhibition of HHT production in human platelets at 15 µM is 35%.
For “1,3-dihydro-3-(2-methoxyphenylthio)-1-phenyl-2H-pyrrolo[2,3-b]pyridin-2-one [Compound 23]”, the “PMN Assay % Inhibition 5-HETE” value was 47% at 5-lipoxygenase (15 μM) and 81% at 5-lipoxygenase (50 μM). Moreover, the “% inhibition of HHT production in human platelets” value on cyclooxygenase (15 μM) is given as 49%.
`CN1C(=O)C(Sc2ccccc2)c2cccnc21` (stereo not drawn) [Compound 17, 1,3-dihydro-1-methyl-3-(phenylthio)-2H-pyrrolo[2,3-b]pyridin-2-one]: the inhibition at 50 µM at 5-lipoxygenase (50 μM) was 63%. Further, the % inhibition of HHT production in human platelets at 50 µM on cyclooxygenase is 21%.

The values above are taken from patent US5182289A, “Heterobicyclic compounds having antiinflammatory activity” (Schering Corporation, priority 1990, dated 1993).
